Measured values taken from patent publication US5438050A, “Indolocarbazole derivatives, processes for their preparation and compositions containing them” (Godecke Aktiengesellschaft, priority 1988, dated 1995).

Target: protein kinase C
Experiment: enzyme assay of protein kinase C activated with phosphatidylserine and diacylglycerol (according to EP-OS 0,255,126)
Type: biochemical
Conditions: read-out: 50% inhibition at a concentration of
Method: The compounds according to the invention are potent inhibitors of protein kinases, such as protein kinase C. […] The experiment was carried out according to EP-OS 0,255,126 (inhibition of protein kinase C). Admittedly, indolocarbazoles have already been described as inhibitors of protein kinase C (J Antibiotic 30:275, 1977; Biochem Biophys Res Commun 135:397, 1986). However, it is thereby mainly a question of indolocarbazole-N,N-glycosidesof microbial or semisynthetic origin.

With “2 (and 10)-Chloro-12-ethyl-6,7,12,13-tetrahydro-5-oxo-5H-indolo[2,3-a]pyrrolo[3,4-c]carbazole [Example 3.a]” the IC50 was 310 nM.
